Data reported in PMC7531004, “Discovery of gramicidin A analogues with altered activities by multidimensional screening of a one-bead-one-compound library” (Nature Communications, 2020).
Where a SMILES comes first, the peptide text is derived from it. [ ]: non-standard residue; d: D form. The star is where a group is joined. NHCH2CH2OH = OCCN*; For = O=C*

Tests used:
[1] = test system: P388 mouse leukemia cells; settings: 92 h
Procedure, shortened: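 Peptide stocks diluted 250× in growth medium; P388 cells 1 × 10^4 cells/mL final; 37 °C, 5% CO2, 92 h. WST-1 + 1-methoxy PMS, 4 h, A415. Output: % viability.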

[2] = H+/Na+ transport assay of bead-derived peptides (one-point); type: biochemical; set-up: key: relative activity; mean of two control wells = 1.00; settings: bead-derived peptide solution, EYPC/EYPG LUVs;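 further: relative to parent gramicidin A activity set to 1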
Procedure, shortened: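 One-point screen: peptide + pyranine-loaded LUVs, 30 min RT with vortexing, 96-well. Read-out is fluorescence intensity scaled as 100 × (Ix – I0)/(Imax – I0). Imax from Triton X-100, I0 from untreated vesicles, and the mean of the two control wells is set to 1.00.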

[3] = test system: Streptococcus pyogenes SSI-9; experiment: Antibacterial activity assay of bead-derived peptides (three concentrations); type: cell-based; set-up: key: +++: inhibition by the 640-fold diluted peptide solution; ++: inhibition by the 160-fold diluted solution; +: inhibition by the 40-fold diluted solution; -: no inhibition; settings: S. pyogenes, bead-derived peptide solution, three concentrations
Procedure, shortened: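 First, each peptide stock was diluted 4- and 16-fold in DMSO; next, the three solutions were mixed with S. pyogenes SSI-9 suspension (2 × 10^5 CFU) in cation-adjusted Mueller Hinton Broth plus 5% laked horse blood; finally, plates stood 18 h at 37 °C before checking for grown-cell precipitation.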

| Compound | cell viability/% [1] | H+/Na+ transport activity normalized against the value of 1 (1.00) [2] | antibacterial activity [3] |
| --- | --- | --- | --- |
| CNC(=O)C[C@@H](NC(=O)[C@@H](NC(=O)[C@@H](CC(C)C)NC(=O)[C@H](C)NC(=O)[C@H](NC(=O)[C@H](C)NC(=O)CNC(=O)[C@@H](NC=O)C(C)C)C(C)C)C(C)C)C(=O)N[C@@H](Cc1c[nH]c2ccccc12)C(=O)N[C@H](CC(C)C)C(=O)N[C@@H](Cc1c[nH]c2ccccc12)C(=O)N[C@H](CC(C)C)C(=O)N[C@@H](Cc1c[nH]c2ccccc12)C(=O)N[C@@H](C(=O)N[C@@H](Cc1c[nH]c2ccccc12)C(=O)NCCO)C(C)C [compound 6360] (For-VGA[dV]A[dL]V[dD](NHMe)W[dL]W[dL]W[dV]W-NHCH2CH2OH) | 67.2% | 1.03 | - |
| CNC(=O)C[C@@H](NC(=O)[C@@H](NC(=O)[C@H](NC(=O)[C@H](C)NC(=O)[C@H](NC(=O)[C@H](C)NC(=O)CNC(=O)[C@@H](NC=O)C(C)C)C(C)C)C(C)C)C(C)C)C(=O)N[C@@H](Cc1c[nH]c2ccccc12)C(=O)N[C@H](CC(C)C)C(=O)N[C@@H](Cc1c[nH]c2ccccc12)C(=O)N[C@H](CC(C)C)C(=O)N[C@@H](Cc1c[nH]c2ccccc12)C(=O)N[C@@H](C(=O)N[C@@H](Cc1c[nH]c2ccccc12)C(=O)NCCO)C(C)C [compound 6510] (For-VGA[dV]A[dV]V[dD](NHMe)W[dL]W[dL]W[dV]W-NHCH2CH2OH) | 100.0% | 1.36 | - |
| CNC(=O)C[C@@H](NC(=O)[C@H](Cc1c[nH]c2ccccc12)NC(=O)[C@H](NC(=O)[C@H](Cc1c[nH]c2ccccc12)NC(=O)[C@H](NC(=O)[C@H](Cc1c[nH]c2ccccc12)NC(=O)[C@@H](CC(C)C)NC(=O)[C@@H](NC(=O)[C@H](NC(=O)[C@H](C)NC(=O)[C@@H](CC(C)C)NC(=O)[C@H](C)NC(=O)CNC(=O)[C@@H](NC=O)C(C)C)C(C)C)C(C)C)C(C)C)C(C)C)C(=O)N[C@@H](Cc1c[nH]c2ccccc12)C(=O)NCCO [compound 6520] (For-VGA[dL]A[dV]V[dL]W[dV]W[dV]W[dD](NHMe)W-NHCH2CH2OH) | 100.0% | 1.08 | - |
| CC(C)C[C@@H](NC(=O)[C@H](C)NC(=O)[C@H](NC(=O)[C@H](C)NC(=O)CNC(=O)[C@@H](NC=O)C(C)C)C(C)C)C(=O)N[C@H](C(=O)N[C@H](CC(C)C)C(=O)N[C@@H](Cc1c[nH]c2ccccc12)C(=O)N[C@@H](C(=O)N[C@@H](Cc1c[nH]c2ccccc12)C(=O)N[C@@H](C(=O)N[C@@H](Cc1c[nH]c2ccccc12)C(=O)N[C@H](CC(C)C)C(=O)N[C@@H](Cc1c[nH]c2ccccc12)C(=O)NCCO)C(C)C)[C@H](C)O)C(C)C [compound 6572] (For-VGA[dV]A[dL]V[dL]W[dT]W[dV]W[dL]W-NHCH2CH2OH) | 100.0% | 1.09 | - |
| CC(C)C[C@@H](NC(=O)[C@H](C)NC(=O)CNC(=O)[C@@H](NC=O)C(C)C)C(=O)N[C@@H](C)C(=O)N[C@H](CC(C)C)C(=O)N[C@H](C(=O)N[C@H](CC(C)C)C(=O)N[C@@H](Cc1c[nH]c2ccccc12)C(=O)N[C@H](CC(C)C)C(=O)N[C@@H](Cc1c[nH]c2ccccc12)C(=O)N[C@H](CC(C)C)C(=O)N[C@@H](Cc1c[nH]c2ccccc12)C(=O)N[C@@H](C(=O)N[C@@H](Cc1c[nH]c2ccccc12)C(=O)NCCO)C(C)C)C(C)C [compound 6639] (For-VGA[dL]A[dL]V[dL]W[dL]W[dL]W[dV]W-NHCH2CH2OH) | 0.0% | 1.01 | + |
| CC(C)C[C@@H](NC(=O)[C@H](C)NC(=O)CNC(=O)[C@@H](NC=O)C(C)C)C(=O)N[C@@H](C)C(=O)N[C@@H](C(=O)N[C@H](C(=O)N[C@@H](C(=O)N[C@@H](Cc1c[nH]c2ccccc12)C(=O)N[C@H](CC(C)C)C(=O)N[C@@H](Cc1c[nH]c2ccccc12)C(=O)N[C@H](CC(C)C)C(=O)N[C@@H](Cc1c[nH]c2ccccc12)C(=O)N[C@@H](C(=O)N[C@@H](Cc1c[nH]c2ccccc12)C(=O)NCCO)C(C)C)[C@H](C)O)C(C)C)C(C)C [compound 6702] (For-VGA[dL]A[dV]V[dT]W[dL]W[dL]W[dV]W-NHCH2CH2OH) | 100.0% | 1.03 | + |
| CNC(=O)C[C@@H](NC(=O)[C@@H](NC(=O)[C@@H](CC(C)C)NC(=O)[C@H](C)NC(=O)[C@@H](CC(C)C)NC(=O)[C@H](C)NC(=O)CNC(=O)[C@@H](NC=O)C(C)C)C(C)C)C(=O)N[C@@H](Cc1c[nH]c2ccccc12)C(=O)N[C@@H](C(=O)N[C@@H](Cc1c[nH]c2ccccc12)C(=O)N[C@H](CC(C)C)C(=O)N[C@@H](Cc1c[nH]c2ccccc12)C(=O)N[C@H](CC(C)C)C(=O)N[C@@H](Cc1c[nH]c2ccccc12)C(=O)NCCO)C(C)C [compound 6703] (For-VGA[dL]A[dL]V[dD](NHMe)W[dV]W[dL]W[dL]W-NHCH2CH2OH) | 100.0% | 1.17 | - |
| CC(C)C[C@@H](NC(=O)[C@H](C)NC(=O)CNC(=O)[C@@H](NC=O)C(C)C)C(=O)N[C@@H](C)C(=O)N[C@@H](C(=O)N[C@H](C(=O)N[C@@H](C(=O)N[C@@H](Cc1c[nH]c2ccccc12)C(=O)N[C@H](CC(C)C)C(=O)N[C@@H](Cc1c[nH]c2ccccc12)C(=O)N[C@H](CC(C)C)C(=O)N[C@@H](Cc1c[nH]c2ccccc12)C(=O)N[C@H](CC(C)C)C(=O)N[C@@H](Cc1c[nH]c2ccccc12)C(=O)NCCO)[C@H](C)O)C(C)C)C(C)C [compound 6766] (For-VGA[dL]A[dV]V[dT]W[dL]W[dL]W[dL]W-NHCH2CH2OH) | 100.0% | 1.07 | + |
| CC(C)C[C@@H](NC(=O)[C@@H](NC(=O)[C@H](NC(=O)[C@H](C)NC(=O)[C@H](NC(=O)[C@H](C)NC(=O)CNC(=O)[C@@H](NC=O)C(C)C)C(C)C)C(C)C)C(C)C)C(=O)N[C@@H](Cc1c[nH]c2ccccc12)C(=O)N[C@@H](C(=O)N[C@@H](Cc1c[nH]c2ccccc12)C(=O)N[C@@H](C(=O)N[C@@H](Cc1c[nH]c2ccccc12)C(=O)N[C@@H](C(=O)N[C@@H](Cc1c[nH]c2ccccc12)C(=O)NCCO)[C@H](C)O)C(C)C)C(C)C [compound 6781] (For-VGA[dV]A[dV]V[dL]W[dV]W[dV]W[dT]W-NHCH2CH2OH) | 100.0% | 1.04 | + |
| CC(C)C[C@@H](NC(=O)[C@H](C)NC(=O)[C@H](NC(=O)[C@H](C)NC(=O)CNC(=O)[C@@H](NC=O)C(C)C)[C@H](C)O)C(=O)N[C@H](C(=O)N[C@H](CC(C)C)C(=O)N[C@@H](Cc1c[nH]c2ccccc12)C(=O)N[C@@H](C(=O)N[C@@H](Cc1c[nH]c2ccccc12)C(=O)N[C@H](CC(C)C)C(=O)N[C@@H](Cc1c[nH]c2ccccc12)C(=O)N[C@@H](C(=O)N[C@@H](Cc1c[nH]c2ccccc12)C(=O)NCCO)C(C)C)C(C)C)C(C)C [compound 6797] (For-VGA[dT]A[dL]V[dL]W[dV]W[dL]W[dV]W-NHCH2CH2OH) | 100.0% | 1.02 | - |
| CNC(=O)C[C@@H](NC(=O)[C@H](Cc1c[nH]c2ccccc12)NC(=O)[C@H](NC(=O)[C@H](Cc1c[nH]c2ccccc12)NC(=O)[C@H](NC(=O)[C@H](Cc1c[nH]c2ccccc12)NC(=O)[C@@H](CC(C)C)NC(=O)[C@@H](NC(=O)[C@H](NC(=O)[C@H](C)NC(=O)[C@@H](CC(C)C)NC(=O)[C@H](C)NC(=O)CNC(=O)[C@@H](NC=O)C(C)C)C(C)C)C(C)C)C(C)C)C(C)C)C(=O)N[C@@H](Cc1c[nH]c2ccccc12)C(=O)NCCO [compound 6808] (For-VGA[dL]A[dV]V[dL]W[dV]W[dV]W[dD](NHMe)W-NHCH2CH2OH) | 100.0% | 1.02 | - |
| CC(C)C[C@@H](NC(=O)[C@H](Cc1c[nH]c2ccccc12)NC(=O)[C@H](NC(=O)[C@H](Cc1c[nH]c2ccccc12)NC(=O)[C@H](NC(=O)[C@@H](NC(=O)[C@H](NC(=O)[C@H](C)NC(=O)[C@H](NC(=O)[C@H](C)NC(=O)CNC(=O)[C@@H](NC=O)C(C)C)[C@H](C)O)C(C)C)C(C)C)C(C)C)C(C)C)C(=O)N[C@@H](Cc1c[nH]c2ccccc12)C(=O)N[C@@H](C(=O)N[C@@H](Cc1c[nH]c2ccccc12)C(=O)NCCO)C(C)C [compound 6820] (For-VGA[dT]A[dV]V[dV]W[dV]W[dL]W[dV]W-NHCH2CH2OH) | 100.0% | 1.20 | - |
| CNC(=O)C[C@@H](NC(=O)[C@@H](NC(=O)[C@@H](CC(C)C)NC(=O)[C@H](C)NC(=O)[C@H](NC(=O)[C@H](C)NC(=O)CNC(=O)[C@@H](NC=O)C(C)C)C(C)C)C(C)C)C(=O)N[C@@H](Cc1c[nH]c2ccccc12)C(=O)N[C@H](CC(C)C)C(=O)N[C@@H](Cc1c[nH]c2ccccc12)C(=O)N[C@@H](C(=O)N[C@@H](Cc1c[nH]c2ccccc12)C(=O)N[C@@H](C(=O)N[C@@H](Cc1c[nH]c2ccccc12)C(=O)NCCO)C(C)C)C(C)C [compound 6822] (For-VGA[dV]A[dL]V[dD](NHMe)W[dL]W[dV]W[dV]W-NHCH2CH2OH) | 100.0% | 1.23 | - |
